Test results reported in patent US20240327320A1, “NOVEL ROUTES OF CHEMICAL SYNTHESIS OF 20S(OH)D3, 20S,25(OH)2D3, 20S,23S(OH)2D3, AND 20S,23R(OH)2D3 AND THEIR MODIFICATION OF THE IMMUNE ACTIVITY OF PBMCS” (United State Government as represen ted by the Department …, priority 2023, published 2024).

Key:
[1] = system: CD4 and CD8 T cells from human peripheral blood; experiment: T cell activation in PBMC, flow cytometry with TriMAP/FlowSOM; assay type: cell-based; conditions: 10^-7 M, 24 h, anti-CD3 and anti-CD28, compared to ethanol treated cells
Description: Human peripheral blood mononuclear cells (PBMC) from two healthy individuals were obtained from a pre-existing respository. Their use was approved by the University of Alabama at Birmingham Institutional Review Board (Human Subject Assurance Number FWA00005960) as an exempt protocol #4 (Dr C. Raman, P.I.). […] Informed consent is waived in accord with 45CFR46.116 (d). In 48 well plates, 0.5×10^6 PBMC/well were cultured in RPMI1640 containing, 5% charcoal adsorbed FBS and antibiotics and T cells were activated using […] anti-CD3 (clone 145-2C11) and 1 μg/ml anti-CD28 (clone 37.51) for 24 h (Janjetovic Z, et. al., (2021) Endocrinology 162(1), Chaiprasongsuk A, et. al., (2020) Free Radic Biol Med 155 87-98, Slominski A T, et. al., (2011) Am J Physiol Cell Physiol 300(3) C526-41, McGuire D J, et. al., (2014) Eur J Immunol 44(4) 1137-42, Sestero C M, et. al., (2012) J Immunol 189(6) 2918-30). The culture was treated with 10^-7 M 20S(OH)D3, 20S,25(OH)2D3, 20S,23S(OH)2D3, 20S,23R(OH)2D3 or 1α,25(OH)2D3 (Sigma-Aldrich, St. Louis, MO, USA) dissolved in ethanol and diluted in culture medium at the same time of addition of anti-CD3 and anti-CD28. The vehicle control comprised of 0.1% ethanol. At the end of assay the cells were stained with antibodies to CD4 (clone RPA-T4, BV-421), CD19 (clone HB19, BV-510), CD14 (clone HCD14, Alexa 700), CD137 (clone 4B4-1, BV605), CD8a (clone RPA-T8, FITC), ICOS (clone C398.4A, PE/Dazzle), PD1 (clone NAT105, PE), CD80 (clone 2D10, PerCP/Cy5.5), OX40 (clone ACT35, PE/Cy7), CD69 (clone FN50, APC), HLA-DR (clone L243, APC/Fire 750). All antibodies were from Biolegend except anti-CD8 was from Thermo Fisher. The stained cells were analyzed using a CytoFLEX (Beckman Coulter) flow cytometer.
For unbiased analysis of the multidimensional data, acomputational algorithm-based approaches was utilized (Quintelier K, et. al., (2021) Nature Protocols 16(8) 3775-3801). The flow cytometry standard (FCS) data files from each individual and treatment (two individuals, six treatments including ethanol, a total of 12 data files) were processed through the following workflow—compensation, gating on live cells, gating for single cells and subtraction of CD19+(B cells) and CD14+(monocytes). B cells and monocytes were removed from the analysis because only T cells (CD4+ and CD8+) are activated by anti-CD3 and anti-CD28. After these initial gating steps, a key word was added to each of the 12 FCS files, down sampled to 50,000 events/sample and concatenated. Down sampling ascertains that each sample is equally weighted, and concatenation ascertains that statistical analysis is applied equally. The concatenated files were first subjected to TriMAP analysis, a computational algorithm that clusters populations based on triplet relatedness followed by FlowSOM algorithm-based clustering (Quintelier K, et. al., (2021) Nature Protocols 16(8) 3775-3801). To perform these analyses, plugins within FlowJo (BD, CA, USA) were used.
T cells in peripheral blood from two healthy individuals were activated with anti-CD3 and anti-CD28 in the absence (ethanol) or presence of 10^−7 M of each of the vitamin D3 secosteroids for 24 h. The cells were stained for lineage markers (CD4, CD8, CD19, CD14) and a panel of activation induced markers (CD69, ICOS, OX40, CD137, PD1, HLADR) and expression data were collected using a flow cytometer. The gating strategy was live, single cell followed by CD4 and CD8 T cell populations. […]

[2] = system: Human epidermal keratinocytes (HEKn); experiment: Protein expression, immunofluorescence; assay type: cell-based; conditions: 48 h, FIG. 7C
Description: HEKn were cultured until the third passage before treatment. Keratinocytes were plated in a 96-well plate and at 80% confluence, 10^-7 M secosteroids (or 0.1% ethanol control) were added and cells were incubated for 48 h. Cells were fixed and stained with anti-involucrin (1:20, GTX-14504; Genetex, Irvine, CA, USA) anti-CK10 (1:300, Santa Cruz Biotechnology), anti-catalase (1:200, Santa Cruz Biotechnology) or anti-CK14 antibody with Alexa Fluor® 488 (1:500, Santa Cruz Biotechnology) and imaged at 10× magnification in Cytation 5 reader as described before (Chaiprasongsuk A, et. al., (2020) Free Radic Biol Med 155 87-9845; Slominski A T, et. al., (2017) Sci Rep 7(1) 11434; Chaiprasongsuk A, et. al., (2020) Int J Mol Sci 21(24)). Nuclei were stained with blue DAPI. Fluorescence intensity was measured using the Cytation 5 reader and ImageJ, and data were analyzed using Graph Pad Prizm.
FIG. 7C and FIG. 7D represent protein expression studies. Values are presented as percentage of fluorescence positive cells (FIG. 7C) or as mean fluorescence per cell (% of all cells (FIG. 7D). The values in FIG. 7D were calculated as mean green fluorescence vs DAPI blue fluorescence measured in ImageJ. Data are means±SD (n=3) and were analyzed using Student's t-test with p<0.05 (*), p<0.01 (**) or p<0.001 (***).

SMILES | CD4 T cells of population 4 (down modulated CD4, increased CD69 and ICOS) [1] | protein levels of involucrin, CK10, CK14, and catalase [2]
C=C1CC[C@H](O)C/C1=C/C=C1\CCC[C@@]2(C)[C@H]1CC[C@@H]2[C@@](C)(O)CCCC(C)C [20S(OH)D3, (20S)-20-Hydroxyvitamin D3] | increased the proportion of cells with population 4 phenotype | increasing the levels of involucrin, CK10, CK14, and catalase
C=C1CC[C@H](O)C/C1=C/C=C1\CCC[C@@]2(C)[C@H]1CC[C@@H]2[C@@](C)(O)CCCC(C)(C)O [20S,25(OH)2D3, (20S)-20,25-Dihydroxyvitamin D3] | fewer cells | increasing the levels of involucrin, CK10, CK14, and catalase
C=C1CC[C@H](O)C/C1=C/C=C1\CCC[C@@]2(C)[C@H]1CC[C@@H]2[C@@](C)(O)C[C@H](O)CC(C)C [20S,23R(OH)2D3, (20S,23R)-20,23-Dihydroxyvitamin D3] | – | increasing the levels of involucrin, CK10, CK14, and catalase
C=C1CC[C@H](O)C/C1=C/C=C1\CCC[C@@]2(C)[C@H]1CC[C@@H]2[C@@](C)(O)C[C@@H](O)CC(C)C [20S,23S(OH)2D3, (20S,23S)-20,23-Dihydroxyvitamin D3] | fewer cells | increasing the levels of involucrin, CK10, CK14, and catalase
